# Reference: US9221827B2, “Antimicrobial compounds and methods of making and using the same” (Melinta Therapeutics, Inc., priority 2011, dated 2015)
# Test system: Escherichia coli strain ATCC25922
# Assay: standard microdilution assay to determine minimum inhibitory concentrations (MICs)
# Type: cell-based
# Settings: Escherichia coli strain ATCC25922, microdilution
# Experimental: The in vitro activity of the compounds of the present invention can be determined. Antimicrobial testing is typically performed to determine the minimum inhibitory concentration (MIC). Minimum inhibitory concentrations (MICs) are determined by the microdilution method in a final volume of 100 μl according to protocols outlined by The Clinical and Laboratory Standards Institute (CLSI). Performance standards for reference strains are assessed within the same experimental design to maintain quality control. See, for example, Clinical Laboratory Standards Institute: Methods for dilution antimicrobial susceptibility tests for bacteria that grow aerobically M7-A8. Approved Standard-Eighth Edition. Wayne, Pa.: CLSI; December 2008; and Clinical Laboratory Standards Institute: Performance Standards for Antimicrobial Susceptibility Testing M100-S20; Approved Standard-Twentieth Edition. Wayne, Pa.: CLSI; June 2010.
# The compounds of the present invention were tested for antimicrobial activity. […] The compounds were run against Escherichia coli strain ATCC25922 using a standard microdilution assay to determine minimum inhibitory concentrations (MICs). […] A “N/A” means that data is unavailable. It will be recognized by one skilled in the art that the compounds can be assessed against other bacterial organisms and that the presentation of data for activity against Escherichia coli is illustrative and in no way is intended to limit the scope of the present invention. The compounds of the present invention can be assayed against a range of other microorganisms depending upon the performance activity desired to be gathered. Furthermore, the “+”, “−”, and “N/A” representation and the selection of a cutoff value of 16 micrograms/ml is also illustrative and in no way is intended to limit the scope of the present invention.
row,SMILES,E. coli ATCC25922 MIC
1,C[S+]([O-])Cc1cc(CCCCN)cc(-c2cc3cn(-c4ccc(CNCCCNC(=N)N)cc4)c(=O)nc3[nH]2)c1 (centres unmarked) [Compound 2],+ (a “+” indicates that the compound has an MIC value of 16 micrograms/ml or less)
2,COCc1cc(CCCCN)cc(-c2cc3cn(-c4ccc(CNCCCNC(=N)N)cc4)c(=O)nc3[nH]2)c1 [Compound 3],+ (a “+” indicates that the compound has an MIC value of 16 micrograms/ml or less)
3,N=C(N)NCCCNCc1ccc(-n2cc3cc(-c4cc(CCCCN)cc(C5CNC5)c4)[nH]c3nc2=O)cc1 [Compound 4],+ (a “+” indicates that the compound has an MIC value of 16 micrograms/ml or less)
4,N=C(N)NCCCNCc1ccc(-n2cc3cc(-c4cccc(CCCCN)c4F)[nH]c3nc2=O)cc1 [Compound 5],+ (a “+” indicates that the compound has an MIC value of 16 micrograms/ml or less)
5,N=C(N)NCCCNCc1ccc(-n2cc3cc(-c4c(F)c(F)cc(CCCCN)c4F)[nH]c3nc2=O)cc1 [Compound 6],+ (a “+” indicates that the compound has an MIC value of 16 micrograms/ml or less)
6,N=C(N)NCCCNCc1ccc(-n2cc3cc(-c4cc(CSCCN)ccc4F)[nH]c3nc2=O)cc1 [Compound 7],+ (a “+” indicates that the compound has an MIC value of 16 micrograms/ml or less)
7,N=C(N)NCCCNCc1ccc(-n2cc3cc(-c4cc(CSCCN)cc(OC(F)(F)F)c4)[nH]c3nc2=O)cc1 [Compound 8],+ (a “+” indicates that the compound has an MIC value of 16 micrograms/ml or less)
8,Cc1cc(CCCCN)cc(-c2cc3cn(-c4ccc(CNCCCNC(=N)N)cc4)c(=O)nc3[nH]2)c1 [Compound 9],+ (a “+” indicates that the compound has an MIC value of 16 micrograms/ml or less)
9,N=C(N)NCCCNCc1ccc(-n2cc3cc(-c4c(Cl)ccc(CCCCN)c4Cl)[nH]c3nc2=O)cc1 [Compound 10],+ (a “+” indicates that the compound has an MIC value of 16 micrograms/ml or less)

# Same assay, conditions: Escherichia coli strain ATCC25922, standard microdilution assay
row,SMILES,E. coli ATCC25922 MIC
1,CC(NCCCNC(=N)N)c1ccc(-n2cc3cc(-c4cc(CC5CC(CN)C5)cc(SC(F)(F)F)c4)[nH]c3nc2=O)cc1 (mixture of isomers) [Compound 401],+ (a “+” indicates that the compound has an MIC value of 16 micrograms/ml or less)
2,CC(NCCCNC(=N)N)c1ccc(-n2cc3cc(-c4cc(CC5CCC(N)C5)cc(SC(F)(F)F)c4)[nH]c3nc2=O)cc1 (mixture of isomers) [Compound 420],+ (a “+” indicates that the compound has an MIC value of 16 micrograms/ml or less)
3,CC(NCCCNC(=N)N)c1ccc(-n2cc3cc(-c4cc(CC5CCC(N)C5)cc(Cl)c4F)[nH]c3nc2=O)cc1 (mixture of isomers) [Compound 421],+ (a “+” indicates that the compound has an MIC value of 16 micrograms/ml or less)
4,CC(NCCCNC(=N)N)c1ccc(-n2cc3cc(-c4cc(COC5CC(N)C5)cc(OC(F)(F)F)c4)[nH]c3nc2=O)cc1 (mixture of isomers) [Compound 423],+ (a “+” indicates that the compound has an MIC value of 16 micrograms/ml or less)
5,N=C(N)NCCCNCc1ccc(-n2cc3cc(-c4cc(C5CCC(N)CC5)cc(C(F)(F)F)c4)[nH]c3nc2=O)cc1 (mixture of isomers) [Compound 425],+ (a “+” indicates that the compound has an MIC value of 16 micrograms/ml or less)
6,CC(NCCCNC(=N)N)c1ccc(-n2cc3cc(-c4cc(C5CCC(N)CC5)cc(C(F)(F)F)c4)[nH]c3nc2=O)cc1 (mixture of isomers) [Compound 426],+ (a “+” indicates that the compound has an MIC value of 16 micrograms/ml or less)
7,N=C(N)NCCCNCc1ccc(-n2cc3cc(-c4cc(C5CCC(CN)CC5)cc(C(F)(F)F)c4)[nH]c3nc2=O)cc1 (mixture of isomers) [Compound 429],+ (a “+” indicates that the compound has an MIC value of 16 micrograms/ml or less)
8,CC(NCCCNC(=N)N)c1ccc(-n2cc3cc(-c4cc(C5CCC(CN)CC5)cc(C(F)(F)F)c4)[nH]c3nc2=O)cc1 (mixture of isomers) [Compound 430],+ (a “+” indicates that the compound has an MIC value of 16 micrograms/ml or less)
